Target: human activated kallikrein enzyme (Homo sapiens (Human), UniProt P03952)
Experiment: Inhibition of human activated plasma kallikrein, fluorogenic peptide substrate assay, 500 pM enzyme format
Assay type: biochemical
Conditions: 500 pM activated kallikrein, 300 uM Pro-Phe-Arg-7-amido-4-methylcoumarin substrate, 30 min preincubation, 10 min reaction at RT; read-out: Primary Dose Response Assay: Average EC50
Experimental: Example compounds were evaluated for inhibition of the human activated kallikrein enzyme in two formats of an assay employing a fluorogenic peptide substrate. In one assay format, the concentrations of reagents were as follows: 20 mM Tris pH 7.5, 1 mM EDTA, 150 mM sodium chloride, 0.1% PEG-400, 0.1% Triton X-100, 500 pM activated kallikrein enzyme, 300 uM Pro-Phe-Arg-7-amido-4-methylcoumarin substrate. Prior to reaction initiation with substrate, enzyme and inhibitors were preincubated for 30 min at RT. After initiation with substrate, reactions were incubated for 10 min at RT and fluorescence emission at 460 nm from 380 nm excitation measured with a microplate reader. In another assay format, the concentrations of reagents were as follows: 20 mM Tris pH 7.5, 1 mM EDTA, 150 mM sodium chloride, 0.1% PEG-400, 0.1% Triton X-100, 5 pM activated kallikrein enzyme, 300 uM Pro-Phe-Arg-7-amido-4-methylcoumarin substrate. Prior to reaction initiation with substrate, enzyme and inhibitors were preincubated for 30 min at RT. After initiation with substrate, reactions were incubated for 18 h at RT and fluorescence emission at 460 nm from 380 nm excitation measured with a microplate reader.

Sequence of human activated kallikrein enzyme (P03952 391-638): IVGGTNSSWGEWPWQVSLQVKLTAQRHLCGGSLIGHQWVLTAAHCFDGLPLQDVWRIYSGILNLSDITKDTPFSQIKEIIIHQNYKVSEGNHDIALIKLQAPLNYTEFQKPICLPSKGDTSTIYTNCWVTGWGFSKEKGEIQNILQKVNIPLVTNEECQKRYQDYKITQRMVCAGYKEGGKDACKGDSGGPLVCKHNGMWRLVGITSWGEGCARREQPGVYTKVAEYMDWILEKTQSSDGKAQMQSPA
Sequence of human activated kallikrein enzyme (P03952 20-390 partner): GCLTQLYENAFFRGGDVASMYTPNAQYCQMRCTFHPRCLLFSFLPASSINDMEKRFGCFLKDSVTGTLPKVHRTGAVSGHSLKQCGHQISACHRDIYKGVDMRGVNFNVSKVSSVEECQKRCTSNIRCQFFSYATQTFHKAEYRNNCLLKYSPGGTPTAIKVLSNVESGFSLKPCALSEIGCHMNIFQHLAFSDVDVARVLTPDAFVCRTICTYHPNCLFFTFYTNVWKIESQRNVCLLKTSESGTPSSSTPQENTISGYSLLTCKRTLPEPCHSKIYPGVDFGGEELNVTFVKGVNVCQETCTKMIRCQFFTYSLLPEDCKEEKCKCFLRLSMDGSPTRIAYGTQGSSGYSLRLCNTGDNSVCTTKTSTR

Compound | EC50
O=C(NCc1ncn2ccc(Cl)c(F)c12)c1cn(Cc2cn3cc(C4CC4)cc(CC(F)C(=O)O)c3n2)nn1 (centres unmarked) [I-224b, 3-(2-((4-(((7-chloro-8-fluoroimidazo[1,5-a]pyridin-1-yl)methyl)carbamoyl)-1H-1,2,3-triazol-1-yl)methyl)-6-cyclopropylimidazo[1,2-a]pyridin-8-yl)-2-fluoropropanoic acid] | < 1 nM
N-((7-chloroimidazo[1,5-a]pyridin-1-yl)methyl)-1-((8-(1-(hydroxymethyl)cyclopropyl)imidazo[1,2-a]pyridin-2-yl)methyl)-1H-pyrazole-4-carboxamide [I-117] | < 1 nM
O=C(NCc1ncn2ccc(Cl)c(F)c12)c1cn(Cc2cn3ccccc3n2)nn1 [I-286, N-((7-chloro-8-fluoroimidazo[1,5-a]pyridin-1-yl)methyl)-1-(imidazo[1,2-a]pyridin-2-ylmethyl)-1H-1,2,3-triazole-4-carboxamide] | 10 to 100 nM
CC(C)(C(=O)O)C(O)c1cc(C2CC2)cn2cc(Cn3cc(C(=O)NCc4ncn5ccc(Cl)c(F)c45)nn3)nc12 (centres unmarked) [I-241b, 3-(2-((4-(((7-chloro-8-fluoroimidazo[1,5-a]pyridin-1-yl)methyl)carbamoyl)-1H-1,2,3-triazol-1-yl)methyl)-6-cyclopropylimidazo[1,2-a]pyridin-8-yl)-3-hydroxy-2,2-dimethylpropanoic acid] | < 1 nM
O=C(NCc1ncn2ccc(Cl)c(F)c12)c1cn(Cc2cc3ccc(C4CC4)cc3o2)nn1 [I-219, N-((7-chloro-8-fluoroimidazo[1,5-a]pyridin-1-yl)methyl)-1-((6-cyclopropylbenzofuran-2-yl)methyl)-1H-1,2,3-triazole-4-carboxamide] | 10 to 100 nM
N-((7-chloro-8-fluoroimidazo[1,5-a]pyridin-1-yl)methyl)-1-((8-(2-cyano-2-methylpropyl)-6-cyclopropylimidazo[1,2-a]pyridin-2-yl)methyl)-1H-pyrazole-4-carboxamide [I-237] | < 1 nM
Ethyl 1-(2-((4-(((7-chloroimidazo[1,5-a]pyridin-1-yl)methyl)carbamoyl)-1H-pyrazol-1-yl)methyl)imidazo[1,2-a]pyridin-8-yl)cyclopropane-1-carboxylate [I-115] | < 1 nM

Next, values leading:

EC50 | Compound
10 to 100 nM | COc1ccc2nc(CNC(=O)c3cnn(Cc4cn5ccc(C6CC6)cc5n4)c3)cn2c1 [I-12, 1-((7-cyclopropylimidazo[1,2-a]pyridin-2-yl)methyl)-N-((6-methoxyimidazo[1,2-a]pyridin-2-yl)methyl)-1H-pyrazole-4-carboxamide]
1 to 10 nM | O=C(NCc1ncn2ccc(Cl)cc12)c1cnn(Cc2cn3nc(C4CC4)ccc3n2)c1 [I-11, N-((7-chloroimidazo[1,5-a]pyridin-1-yl)methyl)-1-((6-cyclopropylimidazo[1,2-b]pyridazin-2-yl)methyl)-1H-pyrazole-4-carboxamide]
10 to 100 nM | O=C(NCc1ncn2ccc(Cl)c(F)c12)c1cn(Cc2ccc3nccnc3c2)nn1 [I-292, N-((7-chloro-8-fluoroimidazo[1,5-a]pyridin-1-yl)methyl)-1-(quinoxalin-6-ylmethyl)-1H-1,2,3-triazole-4-carboxamide]
1 to 10 nM | 1-(2-((4-(((7-chloroimidazo[1,5-a]pyridin-1-yl)methyl)carbamoyl)-1H-pyrazol-1-yl)methyl)imidazo[1,2-a]pyridin-8-yl)cyclopropane-1-carboxylic acid [I-116]
< 1 nM | N-((7-chloroimidazo[1,5-a]pyridin-1-yl)methyl)-1-((6-cyclopropyl-8-(2-methoxyethoxy)imidazo[1,2-a]pyridin-2-yl)methyl)-1H-pyrazole-4-carboxamide [I-103]
1 to 10 nM | CCOC(=O)CCn1c(Cn2cc(C(=O)NCc3ncn4ccc(Cl)c(F)c34)nn2)cc2cc(C3CC3)ccc21 [I-251a, Ethyl 3-(2-((4-(((7-chloro-8-fluoroimidazo[1,5-a]pyridin-1-yl)methyl)carbamoyl)-1H-1,2,3-triazol-1-yl)methyl)-5-cyclopropyl-1H-indol-1-yl)propanoate]

Same assay, conditions: comparative compounds; 500 pM activated kallikrein format; read-out: Primary Dose Response Assay: Average EC50

EC50 | Compound
100 to 2000 nM | Cc1ccn2cc(Cn3cc(C(=O)NCc4cnc5ccc(Cl)cn45)cn3)nc2c1 [reference compound]

From patent publication US11352356B2, “Inhibitors of plasma kallikrein and uses thereof” (Takeda Pharmaceutical Company Limited, priority 2018, dated 2022)
